In US9782406B2, “Kinase inhibitor and method for treatment of related diseases” (PEKING UNIVERSITY SHENZHEN GRADUATE SCHOOL, priority 2011, dated 2017):

Experiments:
Btk = Btk (Homo sapiens, UniProt Q06187); test: Btk in vitro inhibitory activity, acellular TR-FRET kinase assay; type: biochemical; settings: read-out: Btk IC50 (Efficacy); note: 1 µM peptide substrate
Protocol: Btk kinase activity was determined using a time-resolved fluorescence resonance energy transfer (TR-FRET) methodology. Measurements were performed in a reaction volume of 50 μL using 96-well assay plates. […] The TR-FRET signal was measured on a multimode plate reader with an excitation wavelength (λEx) of 330 nm and detection wavelengths (λEm) of 615 and 665 nm. Activity was determined by the ratio of the fluorescence at 665 nm to that at 615 nm. For each compound, enzyme activity was measured at various concentrations of compound. Negative control reactions were performed in the absence of inhibitor in replicates of six, and two no-enzyme controls were used to determine baseline fluorescence levels. IC50s were obtained using the program Batch Ki (Kuzmic et al. (2000), Anal. Biochem. 286:45-50).

[1] = test system: rat basophilic leukemia cells (RBL-2H3); settings: mast cells treated with Btk inhibitor; cited from earlier work

Btk, sequence (Q06187 whole entry): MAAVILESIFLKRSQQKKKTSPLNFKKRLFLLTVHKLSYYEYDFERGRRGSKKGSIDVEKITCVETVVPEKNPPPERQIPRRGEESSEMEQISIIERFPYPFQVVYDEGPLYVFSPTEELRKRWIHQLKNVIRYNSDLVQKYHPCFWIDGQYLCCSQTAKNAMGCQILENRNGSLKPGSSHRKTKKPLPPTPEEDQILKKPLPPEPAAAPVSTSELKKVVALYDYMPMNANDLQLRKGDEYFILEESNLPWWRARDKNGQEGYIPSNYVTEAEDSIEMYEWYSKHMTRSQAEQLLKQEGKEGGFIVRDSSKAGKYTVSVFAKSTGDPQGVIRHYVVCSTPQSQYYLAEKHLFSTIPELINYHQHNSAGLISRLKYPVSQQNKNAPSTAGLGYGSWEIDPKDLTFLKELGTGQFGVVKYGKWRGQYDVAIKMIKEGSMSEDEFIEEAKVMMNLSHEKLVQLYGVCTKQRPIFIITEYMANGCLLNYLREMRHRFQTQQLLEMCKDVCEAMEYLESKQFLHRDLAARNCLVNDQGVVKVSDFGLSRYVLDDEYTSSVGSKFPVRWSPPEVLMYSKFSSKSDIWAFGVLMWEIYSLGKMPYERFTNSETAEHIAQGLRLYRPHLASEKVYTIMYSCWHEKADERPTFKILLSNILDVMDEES

SMILES | IC50 (Btk) | release of histamine reduced [1]
C/C=C/C(=O)Nc1cccc(Nc2ncc(NC(=O)c3cc(NC(=O)c4cccc(C(F)(F)F)c4)ccc3C)cn2)c1 [Example 2] | < 100 nM | 
C=CS(=O)(=O)Nc1cccc(Nc2ncc(NC(=O)c3cc(NC(=O)c4cccc(C(F)(F)F)c4)ccc3C)cn2)c1 [Example 3] | < 100 nM | 
C=CC(=O)NCC(=O)Nc1cccc(Nc2ncc(NC(=O)c3cc(NC(=O)c4cccc(C(F)(F)F)c4)ccc3C)cn2)c1 [Example 4] | < 100 nM | 
C=CC(=O)N(C(=O)C=C)c1cccc(Nc2ncc(NC(=O)c3cc(NC(=O)c4cccc(C(F)(F)F)c4)ccc3C)cn2)c1 [Example 5] | 100 to 1000 nM | 
C=CC(=O)Nc1cccc(Nc2ncc(NC(=O)c3cc(NC(=O)c4cccc(C(F)(F)F)c4)ccc3Cl)cn2)c1 [Example 6] | < 100 nM | 
C=CC(=O)Nc1cccc(Nc2ncc(NC(=O)c3cc(NC(=O)c4cccc(C(F)(F)F)c4)ccc3F)cn2)c1 [Example 7] | < 100 nM | 
C=CC(=O)Nc1cccc(Nc2ncc(NC(=O)c3cccc(NC(=O)c4cccc(C(F)(F)F)c4)c3)cn2)c1 [Example 8] | < 100 nM | 
C=CC(=O)Nc1cccc(Nc2ncc(NC(=O)c3ccccc3C)cn2)c1 [Example 9] | < 100 nM | 
C=CC(=O)Nc1cccc(Nc2ncc(NC(=O)c3cc(NC(=O)CC)ccc3C)cn2)c1 [Example 10] | 100 to 1000 nM | 
C=CC(=O)Nc1cccc(Nc2ncc(NC(=O)c3cc(NC(=O)c4ccc5ccccc5c4)ccc3C)cn2)c1 [Example 11] | < 100 nM | 
C=CC(=O)Nc1cccc(Nc2ncc(NC(=O)c3cc(NC(=O)c4cc(OC)cc(OC)c4)ccc3C)cn2)c1 [Example 12] | < 100 nM | 
C=CC(=O)Nc1cccc(Nc2ncc(NC(=O)c3cc(NC(=O)c4ccc5c(c4)OC(F)(F)O5)ccc3C)cn2)c1 [Example 13] | < 100 nM | 
C=CC(=O)Nc1cccc(Nc2ncc(NC(=O)c3cc(NC(=O)c4ccc(C(F)(F)F)cc4)ccc3C)cn2)c1 [Example 14] | < 100 nM | 
C=CC(=O)Nc1cccc(Nc2ncc(NC(=O)c3cc(NC(=O)c4cccc(Cl)c4)ccc3C)cn2)c1 [Example 15] | < 100 nM | 
C=CC(=O)Nc1cccc(Nc2ncc(NC(=O)c3cc(NC(=O)c4cccc(F)c4)ccc3C)cn2)c1 [Example 16] | < 100 nM | 
C=CC(=O)Nc1cccc(Nc2ncc(NC(=O)c3cc(NC(=O)c4cnoc4C)ccc3C)cn2)c1 [Example 17] | 100 to 1000 nM | 
C=CC(=O)Nc1cccc(Nc2ncc(NC(=O)c3cc(NC(=O)c4cccc(N(C)C)c4)ccc3C)cn2)c1 [Example 18] | < 100 nM | 
C=CC(=O)Nc1cccc(Nc2ncc(NC(=O)c3cc(NC(=O)C4CC4)ccc3C)cn2)c1 [Example 19] | 100 to 1000 nM | 

SMILES | IC50 (Btk) | release of histamine reduced [1]
Cc1ccc(NC(=O)c2cccc(C(F)(F)F)c2)cc1C(=O)Nc1cnc(Nc2cccc(N)c2)nc1 [Example 20] | < 100 nM | 
Cc1ccc(NC(=O)c2cc(Cl)cc(C(F)(F)F)c2)cc1C(=O)Nc1cnc(Nc2cccc(N)c2)nc1 [Example 21] | < 100 nM | 
CCC(=O)Nc1ccc(C)c(C(=O)Nc2cnc(Nc3cccc(N)c3)nc2)c1 [Example 22] | 1000 to 10000 nM | 
Cc1ccc(NC(=O)c2ccc3ccccc3c2)cc1C(=O)Nc1cnc(Nc2cccc(N)c2)nc1 [Example 23] | < 100 nM | 
COc1cc(OC)cc(C(=O)Nc2ccc(C)c(C(=O)Nc3cnc(Nc4cccc(N)c4)nc3)c2)c1 [Example 24] | < 100 nM | 
Cc1ccc(NC(=O)c2ccc3c(c2)OC(F)(F)O3)cc1C(=O)Nc1cnc(Nc2cccc(N)c2)nc1 [Example 25] | < 100 nM | 
Cc1ccc(NC(=O)c2ccc(C(F)(F)F)cc2)cc1C(=O)Nc1cnc(Nc2cccc(N)c2)nc1 [Example 26] | < 100 nM | 
Cc1ccc(NC(=O)c2cccc(Cl)c2)cc1C(=O)Nc1cnc(Nc2cccc(N)c2)nc1 [Example 27] | < 100 nM | 
Cc1ccc(NC(=O)c2cccc(F)c2)cc1C(=O)Nc1cnc(Nc2cccc(N)c2)nc1 [Example 28] | 100 to 1000 nM | 
Cc1ccc(NC(=O)c2cnoc2C)cc1C(=O)Nc1cnc(Nc2cccc(N)c2)nc1 [Example 29] | 100 to 1000 nM | 
Cc1ccc(NC(=O)c2cccc(N(C)C)c2)cc1C(=O)Nc1cnc(Nc2cccc(N)c2)nc1 [Example 30] | < 100 nM | 
Cc1ccc(NC(=O)C2CC2)cc1C(=O)Nc1cnc(Nc2cccc(N)c2)nc1 [Example 31] | 1000 to 10000 nM | 
Nc1cccc(Nc2ncc(NC(=O)c3cccc(NC(=O)c4cccc(C(F)(F)F)c4)c3)cn2)c1 [Example 32] | 100 to 1000 nM | 
Nc1cccc(Nc2ncc(NC(=O)c3cc(NC(=O)c4cccc(C(F)(F)F)c4)ccc3Cl)cn2)c1 [Example 33] | < 100 nM | 
Nc1cccc(Nc2ncc(NC(=O)c3cc(NC(=O)c4cccc(C(F)(F)F)c4)ccc3F)cn2)c1 [Example 34] | < 100 nM | 
Cc1ccc(NC(=O)Nc2cccc(C(F)(F)F)c2)cc1C(=O)Nc1cnc(Nc2cccc(N)c2)nc1 [Example 35] | < 100 nM | 
Cc1ccc(NC(=O)/C=C/c2ccccc2)cc1C(=O)Nc1cnc(Nc2cccc(N)c2)nc1 [Example 37] | 100 to 1000 nM | 
C/C(O)=C(\C#N)C(=O)Nc1cc(Br)ccc1Br [LFM-A13] |  | 20-25%
